Entries after “also recorded” stand apart in the source; their conditions may differ.
Tests used:
TrkB = molecular target: T1, TrkB (Rattus norvegicus, UniProt Q63604); test: TrkB activation in primary cortical neurons (immunoblotting); format: cell-based; settings: 500 nM, 15 min
T1 construct: endogenous in cells; host or cells: primary cortical neurons from E17 rat embryos
Procedure: Primary cortical cultures from E17 rat embryos were treated with 500 nM of various synthetic flavone derivatives for 15 min. The cell lysates (20 μg) were analyzed by the immunoblotting.
Rat primary neurons were treated with 500 nM various indicated compounds from 15 min. The neuronal lysates ([…]) were analyzed with various antibodies.
500 nM of different synthetic compounds were added to DIV 7 neurons for 15 min. The cell lysates were analyzed by immunoblotting with indicated p-Akt 473 antibodies.
Replacing the 3′-dimethylamino group or 4′-morpholino group was tested for TrkB agonistic activity. To compare the TrkB activation by these compounds, primary cortical cultures were prepared and treated them with 500 nM of various compounds for 15 min and collected the cell lysates. […] The p-Akt ELISA analysis results were similar to the TrkB activation pattern (FIG. 2B, lower panel).

Akt = test: Downstream Akt activation in mouse brain (p-Akt immunoblotting, p-Akt 473 ELISA); format: in vivo; settings: 2.5 mg/kg/day oral, 3 weeks
Procedure: PathScan Phospho-Akt1 (Ser473) Sandwich ELISA kit was purchased from Cell Signaling (Cat. #7160). 100 μl sample in sample diluent (supplied in the kit) was added to each well and incubated overnight at 4° C. After 4× wash with 200 ul wash buffer (supplied in the kit), 100 ul/well detection antibody was added and incubated for 1 hour at 37° C. After 4× wash, 100 μl of HRP-linked secondary antibody (supplied in the kit) was added and incubated for 30 minutes at 37° C. After a final wash, 100 μl of TMB substrate was added to each well and incubated for 10 minutes at 37° C. The reaction was stopped by adding 100 μl/well stop solution. Record the values of each well using microplate reader at 450 nm and 650 nm. The optical density was determined by the subtraction of the reading at 650 nm from the reading s at 450 nm.
Male C57BL/6 mice aged of two months were administrated orally with 4′-DMA-7,8-DHF derivatives at a single dose of 1 mg/kg for 4 h. The control mice were injected with saline. The mice were sacrificed and brains were homogenated and ultracentrafuged. The supernatant (40 μg) was employed for SDS-PAGE and immunoblotting analysis with indicated antibodies, respectively. Male C57BL/6 mice aged of two months were administrated orally with compound (i) or (m) at the dose of 5 mg/kg/day each and compound o or p at the dose of 2.5 mg/kg/day each for 21 days. BrdU (100 mg/kg) was i. p. injected two hours before the TrkB agonist treated animals were sacrificed and the hippocampal section lysates were analyzed by immunoblotting with p-TrkB and total TrkB antibodies, p-AKT ELISA.

C57BL/6J mice [1] = test: Forced swim test; format: in vivo, mouse
Procedure: Male C57BL/6J mice (6 mice/group) were orally administrated by gavage with 5 mg/kg compound (m) or compound (i) and vehicle solvent saline for 21 days and subjected to a forced swim test (6 min, immobility recorded in the last 4 min). Data are presented as mean±SEM. (n=6, ***P<0.0001 vs vehicle, Student t-test).
Forced swim test. Male C57BL/6J mice (8 mice/group) were orally administrated by gavage with 2.5 mg/kg compound o or compound p and vehicle solvent saline for 21 days and subjected to a forced swim test (6 min, immobility recorded in the last 4 min). […] Data are presented as mean±SEM.
Adult male mice (2-3 months old) were randomly submitted to a forced swim test without a preswim. Test compounds were orally administrated by gavage for 21 days. The mice were allowed to adapt to the test room for 2 days. The mice were placed in a clear glass cylinder with a diameter of 16 cm, half-filled with clear water at 24° C.

C57BL/6J mice [2] = test: Tail suspension test; format: in vivo, mouse; settings: 2.5 mg/kg oral, 21 days
Procedure: The drug-treated mice were subjected tail suspension assay. […] Data are presented as mean±SEM.
One suspends mice by the tail to a horizontal ring stand bar 30 cm above the floor using adhesive tape for 6 minutes and videotaped. Latency to immobility and time spent immobile will be scored for each mouse. Following the test, mice will be returned to their home cage. Immobility scores were compared by unpaired t test.

HepG2 cells = test: In vitro cytotoxicity assay with HepG2 cells; format: cell-based; settings: micronucleus and comet assays
Procedure: HepG2 cells were treated with various concentrations of flavonoids for 24 h. The drug-treated cells were subjected to trypan blue exclusive assay. Data are presented as mean±SEM. (n=3, ***P<0.0001 vs vehicle).
In vitro and in vivo ADMET (ADME plus toxicity) of certain compounds were examined. […] Micronuclei formation is an important endpoint in genotoxicity study. […] Next, a Comet assay was performed with 100 μM drug-treated HepG2 cells. As a positive control, etoposide, a topoisomerase inhibitor, which causes DNA strand breaks was used.

[3] = Human liver microsomal stability assay; format: in vitro ADME; settings: human liver microsomes, 1 h incubation
Excerpt: (§1) To explore these compounds' in vitro ADMET profiles, we conducted numerous in vitro assays.

[4] = Reactive metabolic screening assay; format: in vitro ADME; settings: liver microsomal lysates
Excerpt: as §1

CYP1A2 = molecular target: T2, CYP1A2 (Homo sapiens, UniProt P05177); test: CYP screen inhibition; format: in vitro ADME
T2 sequence (P05177 1-516): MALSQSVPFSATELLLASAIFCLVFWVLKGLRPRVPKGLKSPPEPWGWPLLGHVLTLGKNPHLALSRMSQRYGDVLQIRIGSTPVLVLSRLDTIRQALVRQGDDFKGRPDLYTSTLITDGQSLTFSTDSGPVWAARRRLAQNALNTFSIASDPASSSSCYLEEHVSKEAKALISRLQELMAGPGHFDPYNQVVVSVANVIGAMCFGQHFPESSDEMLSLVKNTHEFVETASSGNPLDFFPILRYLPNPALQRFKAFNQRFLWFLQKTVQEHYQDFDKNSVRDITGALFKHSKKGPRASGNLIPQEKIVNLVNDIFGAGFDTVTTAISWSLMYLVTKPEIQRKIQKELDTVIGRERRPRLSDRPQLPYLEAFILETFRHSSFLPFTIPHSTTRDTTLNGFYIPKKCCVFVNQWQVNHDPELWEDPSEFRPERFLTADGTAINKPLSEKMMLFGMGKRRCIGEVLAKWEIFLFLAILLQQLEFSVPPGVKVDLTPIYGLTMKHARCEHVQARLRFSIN
Procedure: (§2) At 30 μM, the inhibition patterns contained similar trends. To test the possible cardiovascular toxicity, hERG inhibition triggered by compound o was examined.

hERG = hERG (Homo sapiens, UniProt Q12809); test: hERG inhibition assay
Sequence of hERG (Q12809 whole entry): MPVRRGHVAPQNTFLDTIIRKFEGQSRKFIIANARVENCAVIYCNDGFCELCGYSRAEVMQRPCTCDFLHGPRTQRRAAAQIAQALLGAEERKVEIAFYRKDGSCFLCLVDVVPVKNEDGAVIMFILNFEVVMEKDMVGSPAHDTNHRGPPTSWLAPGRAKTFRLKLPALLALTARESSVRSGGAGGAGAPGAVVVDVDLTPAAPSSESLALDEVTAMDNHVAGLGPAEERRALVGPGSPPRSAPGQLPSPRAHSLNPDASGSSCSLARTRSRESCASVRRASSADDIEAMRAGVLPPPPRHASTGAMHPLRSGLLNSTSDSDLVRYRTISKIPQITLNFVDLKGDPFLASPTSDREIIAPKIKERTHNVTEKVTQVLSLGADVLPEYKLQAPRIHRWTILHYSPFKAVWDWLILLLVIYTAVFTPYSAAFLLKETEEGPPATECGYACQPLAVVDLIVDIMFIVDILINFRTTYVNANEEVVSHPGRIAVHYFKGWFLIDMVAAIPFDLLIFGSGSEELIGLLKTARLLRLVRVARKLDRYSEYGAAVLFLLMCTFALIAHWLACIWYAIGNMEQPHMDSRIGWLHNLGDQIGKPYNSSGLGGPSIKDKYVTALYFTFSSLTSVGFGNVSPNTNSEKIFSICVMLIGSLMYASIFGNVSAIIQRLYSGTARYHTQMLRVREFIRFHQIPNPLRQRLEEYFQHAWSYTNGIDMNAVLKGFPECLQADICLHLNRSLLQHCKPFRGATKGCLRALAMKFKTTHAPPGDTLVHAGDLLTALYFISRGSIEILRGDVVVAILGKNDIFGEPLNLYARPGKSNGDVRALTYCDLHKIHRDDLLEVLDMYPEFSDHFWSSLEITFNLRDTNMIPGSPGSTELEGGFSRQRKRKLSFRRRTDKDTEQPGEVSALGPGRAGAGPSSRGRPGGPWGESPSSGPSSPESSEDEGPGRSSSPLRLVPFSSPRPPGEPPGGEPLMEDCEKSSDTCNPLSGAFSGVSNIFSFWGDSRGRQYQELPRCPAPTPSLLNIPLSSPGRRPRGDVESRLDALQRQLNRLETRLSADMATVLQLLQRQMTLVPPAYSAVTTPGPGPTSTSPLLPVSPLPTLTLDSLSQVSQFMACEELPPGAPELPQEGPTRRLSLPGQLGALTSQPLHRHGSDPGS
Procedure: as §2

T1 sequence (Q63604 32-821): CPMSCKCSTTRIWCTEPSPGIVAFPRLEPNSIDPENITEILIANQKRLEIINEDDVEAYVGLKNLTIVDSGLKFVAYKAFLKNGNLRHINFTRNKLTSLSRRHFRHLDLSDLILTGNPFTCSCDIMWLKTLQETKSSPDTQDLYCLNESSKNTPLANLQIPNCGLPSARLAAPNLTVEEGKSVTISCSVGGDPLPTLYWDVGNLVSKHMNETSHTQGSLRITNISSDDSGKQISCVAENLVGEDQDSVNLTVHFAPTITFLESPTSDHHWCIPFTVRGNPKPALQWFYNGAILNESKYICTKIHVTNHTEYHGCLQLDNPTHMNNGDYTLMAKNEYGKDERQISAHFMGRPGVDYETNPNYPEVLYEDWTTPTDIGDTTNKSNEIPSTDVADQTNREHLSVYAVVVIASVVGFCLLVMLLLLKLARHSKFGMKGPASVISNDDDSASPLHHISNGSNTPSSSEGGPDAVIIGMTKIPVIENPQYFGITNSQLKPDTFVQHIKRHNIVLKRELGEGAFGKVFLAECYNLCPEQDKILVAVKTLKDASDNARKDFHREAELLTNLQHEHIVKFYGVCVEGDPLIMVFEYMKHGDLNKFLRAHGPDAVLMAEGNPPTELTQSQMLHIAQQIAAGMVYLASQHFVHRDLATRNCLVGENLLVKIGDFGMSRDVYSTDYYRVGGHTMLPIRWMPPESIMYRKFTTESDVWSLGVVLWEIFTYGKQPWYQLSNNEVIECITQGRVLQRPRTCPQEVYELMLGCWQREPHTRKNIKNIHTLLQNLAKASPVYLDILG

Cc1nc2ccc3c(=O)cc(-c4ccc(N5CCCC5)cc4)oc3c2[nH]1 [compound o, 2-methyl-8-(4-(pyrrolidin-1-yl)phenyl)chromeno[7,8-d]imidazol-6(1H)-one]
TrkB activation (p-TrkB immunoblotting) (TrkB): higher agonistic activity than compound m
TrkB activation (p-TrkB immunoblotting) (TrkB; listed as 4′-pyrrolidino-7,8-methyl-imidazole-flavone): triggers TrkB activation in primary neurons
Akt activation (quantitative p-Akt ELISA) (Akt): notably activated Akt
reduction of immobility in forced swim test compared to vehicle control (C57BL/6J mice [1]; 2.5 mg/kg oral once a day, 3 weeks): 45%
immobility in forced swim test (C57BL/6J mice [1]; 2.5 mg/kg oral, 21 days): active in both FST and TST depression behavioral assays; also recorded: significantly decreased the immobility
immobility in tail suspension test (C57BL/6J mice [2]): active in both FST and TST depression behavioral assays; also recorded: significantly reduced the immobility versus vehicle control
cytotoxicity or genotoxicity (overall conclusion) (HepG2 cells): negligible cytotoxicity or genotoxicity
remaining unchanged after incubation [3]: 25.4%
reactive metabolite / adduct formation [4]: quite stable in vitro
inhibition at 3 µM (CYP1A2): ~27.3%
hERG inhibition (hERG): suboptimal; also recorded: did not possess any concentration-dependent inhibition activity of hERG
